Earlier results as cited in US20260022280A1, “LOW VOC SOLVENT CEMENT FORMULATION WITH REDUCED TOXICITY AND RAPID CURING” (Ashirvad Pipes Pvt Ltd, priority 2022, published 2026).
Read-outs that look alike come from different tables or passages of the source.

Assays:
[1] = for ECHA Concern: Yes / No
Rat [2] = settings: Rat male and female
[3] = total solubility parameter
Rat [4] = settings: in vivo
[5] = solvents
Rat [6] = settings: 4 h
Mouse = settings: 4 h

SMILES | ECHA Concern [1] | Vapour Pressure (at 20° C.) [mm Hg] | other results
CCO [Ethanol] | Yes | 43.5 | 
COC(=O)CCCCC(=O)OC [Dimethyl adipate] | No | 0.06 | 
CCOC(C)=O [Ethyl acetate] | No | 75 | 
CC(=O)C(C)C [Methyl iso propyl ketone] | No | 41.25 | 
CCN1CCCCCC1=O [N-ethyl caprolactam] | No |  | 
CCCC(C)=O [MPK, Methyl Propyl Ketone] | No | 12 | LD50 Dermal (Rat [2]): > 6480 mg/kg; SPo (Total) [3]: 9.6 (Cal/cm^3)^1/2; LD50 Oral (Rat [4]): > 16000 mg/kg; Density [5]: 0.80 g/cc
O=C1CCCCC1 [CYH, Cyclohexanone] | No | 3.75 | LD50 Dermal (Rabbit): 947 mg/kg; LD50 Inhalation (Rat [6]; Rat): 8000 ppm; SPo (Total) [3]: 9.6 (Cal/cm^3)^1/2; LD50 Oral (Rat [4]): 1544 mg/kg
CCC(=O)CC [Diethyl ketone] | No | 15 | 
C[S+](C)[O-] [Dimethyl sulfoxide] | No | 0.44 | 
CCC(C)=O [MEK, Methyl Ethyl Ketone] |  | 15 | LC50 Inhalation (Mouse): 32.000 mg/m3; Density [5]: 0.80 g/cc
CC(C)=O [ACE, Acetone] | No | 180 | SPo (Total) [3]: 9.8 (Cal/cm^3)^1/2; Density [5]: 0.78 g/cc
O=C1CCCO1 [γ-Butyrolactone] | No | 1.12 | 
COC(C)=O [N-methylacetate] | Yes | 173 | 
CN(C)C=O [Dimethylformamide] |  | 3.67 | 
CC1CCCO1 (stereo not shown) [2-Methyl tetrahydrofuran] | No | 102 | 
CCCCOC(C)=O [N-butyl acetate] | No |  | 
CC(=O)OC(C)(C)C [t-butyl acetate] | No |  | Vapour Pressure ((25° C.)): 47.25 mm Hg
CCOCCOCC [1,2 Diethoxy ethane] | Yes | 9 | 
C1COCO1 [1,3 Dioxolane] |  |  | LD50 (Rat [4]; po): 5200 mg/kg
CC(=O)CCC(C)C [Methyl iso amyl ketone] | Yes | 4.5 | 
O=C1CCCC1 [Cyclopentanone] | No | 11.4 | 
COC1CCCC1 [Cyclopentyl Methyl Ether] | No |  | Vapour Pressure ((25° C.)): 44.92 mm Hg
COC(=O)OC [Dimethyl Carbonate] | No |  | Vapour Pressure ((25° C.)): 55.5 mm Hg
CCOC(C)OCC [1,1 Diethoxy ethane] | Yes | 20.25 | 
CN1CCCC1=O [N-Methyl-2-Pyrrolidone] | Yes | 0.29 | 
C1CCOC1 [THF, Tetrahydrofuran] | Yes | 145 | Hazard Classification & labelling ([1]; ECHA, harmonised classification / REACH registrations): suspected to be Carcinogenic; LC50 Inhalation (Rat [6]; Rat male and female): 4 h −> 16.9 mg/l; Vapour Pressure (at 20° C., listed as Tetrahydrofuran): 144.76 mm Hg; Density [5]: 0.88 g/cc
CO [Methanol] |  | 96.75 | 
CCCCCC(C)=O [Methyl amyl ketone] | No | 1.5 | 
CC(=O)CC(C)=O [Acetylacetone] |  | 2.96 | 
